Test results published in PubChem BioAssay (NCI).
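All cell lines were grown in 96-well plates and treated with compound for 48 hours. The concentration for 50% growth inhibition is given as GI50. At the TGI there is no net growth.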

Key:
Assay in all cases: DTP human tumour cell line panel, 48 h
SNB-19 CNS = test system: SNB-19 CNS
786-0 renal = test system: 786-0 renal
HCT-15 colon = test system: HCT-15 colon
RXF 393 renal = test system: RXF 393 renal
RPMI-8226 leukemia = test system: RPMI-8226 leukemia
U251 CNS = test system: U251 CNS
SNB-75 CNS = test system: SNB-75 CNS
OVCAR-8 ovarian = test system: OVCAR-8 ovarian
HCC-2998 colon = test system: HCC-2998 colon
NCI/ADR-RES ovarian = test system: NCI/ADR-RES ovarian
SR leukemia = test system: SR leukemia
HOP-92 NSCLC = test system: HOP-92 NSCLC
LOX IMVI melanoma = test system: LOX IMVI melanoma
HL-60(TB) leukemia = test system: HL-60(TB) leukemia
SK-MEL-28 melanoma = test system: SK-MEL-28 melanoma
SK-MEL-2 melanoma = test system: SK-MEL-2 melanoma
ACHN renal = test system: ACHN renal
TK-10 renal = test system: TK-10 renal
MOLT-4 leukemia = test system: MOLT-4 leukemia
DU-145 prostate = test system: DU-145 prostate
UACC-257 melanoma = test system: UACC-257 melanoma
SN12C renal = test system: SN12C renal
SF-539 CNS = test system: SF-539 CNS
M14 melanoma = test system: M14 melanoma
BT-549 breast = test system: BT-549 breast
T-47D breast = test system: T-47D breast
HOP-62 NSCLC = test system: HOP-62 NSCLC
MDA-MB-231 breast = test system: MDA-MB-231 breast
HCT-116 colon = test system: HCT-116 colon
UO-31 renal = test system: UO-31 renal
OVCAR-4 ovarian = test system: OVCAR-4 ovarian
SW-620 colon = test system: SW-620 colon
PC-3 prostate = test system: PC-3 prostate
SK-OV-3 ovarian = test system: SK-OV-3 ovarian
UACC-62 melanoma = test system: UACC-62 melanoma
CCRF-CEM leukemia = test system: CCRF-CEM leukemia
HT29 colon = test system: HT29 colon
SF-268 CNS = test system: SF-268 CNS
A549 NSCLC = test system: A549 NSCLC
SK-MEL-5 melanoma = test system: SK-MEL-5 melanoma
IGROV1 ovarian = test system: IGROV1 ovarian
COLO 205 colon = test system: COLO 205 colon
HS 578T breast = test system: HS 578T breast
MALME-3M melanoma = test system: MALME-3M melanoma
K-562 leukemia = test system: K-562 leukemia
OVCAR-5 ovarian = test system: OVCAR-5 ovarian
EKVX NSCLC = test system: EKVX NSCLC
CAKI-1 renal = test system: CAKI-1 renal
OVCAR-3 ovarian = test system: OVCAR-3 ovarian
A498 renal = test system: A498 renal
NCI-H226 lung = test system: NCI-H226 lung
SF-295 CNS = test system: SF-295 CNS
NCI-H522 lung = test system: NCI-H522 lung
KM12 colon = test system: KM12 colon
MDA-MB-435 = test system: MDA-MB-435
NCI-H460 lung = test system: NCI-H460 lung

Work on `CN(C)CCCNc1c2ccc(Cl)cc2nc2c1oc1ccc(Cl)cc12` yielded a GI50 (SNB-19 CNS) of 5.97 µM, a TGI (SNB-19 CNS) of 18.8 µM and a GI50 (786-0 renal) of 1.65 µM. For the same compound, the TGI (786-0 renal) was 3.25 µM, the GI50 (HCT-15 colon) was 2.1 µM and the TGI (HCT-15 colon) was 5.71 µM. The GI50 (RXF 393 renal) was 2.68 µM, the TGI (RXF 393 renal) was 8.4 µM and the GI50 (RPMI-8226 leukemia) was 2.58 µM. It also gave a TGI (RPMI-8226 leukemia) of 7.84 µM, a GI50 (U251 CNS) of 1.76 µM and a TGI (U251 CNS) of 3.35 µM. For the same compound, the GI50 (SNB-75 CNS) was 5.25 µM, the TGI (SNB-75 CNS) was 19.2 µM and the GI50 (OVCAR-8 ovarian) was 2.07 µM. It also gave a TGI (OVCAR-8 ovarian) of 4.45 µM, a GI50 (HCC-2998 colon) of 1.84 µM and a TGI (HCC-2998 colon) of 3.38 µM. For the same compound, the GI50 (NCI/ADR-RES ovarian) was 2.31 µM, the TGI (NCI/ADR-RES ovarian) was 6.59 µM and the GI50 (SR leukemia) was 3.04 µM. The TGI (SR leukemia) was 10.1 µM, the GI50 (HOP-92 NSCLC) was 1.41 µM and the TGI (HOP-92 NSCLC) was 7.69 µM. The GI50 (LOX IMVI melanoma) was 1.89 µM, the TGI (LOX IMVI melanoma) was 3.4 µM and the GI50 (HL-60(TB) leukemia) was 1.98 µM. It also gave a TGI (HL-60(TB) leukemia) of 4.81 µM, a GI50 (SK-MEL-28 melanoma) of 14 µM and a TGI (SK-MEL-28 melanoma) of 27.2 µM. The GI50 (SK-MEL-2 melanoma) was 13.6 µM, the TGI (SK-MEL-2 melanoma) was 26.8 µM and the GI50 (ACHN renal) was 1.7 µM. For the same compound, the TGI (ACHN renal) was 3.23 µM, the GI50 (TK-10 renal) was 13.1 µM and the TGI (TK-10 renal) was 26 µM. For the same compound, the GI50 (MOLT-4 leukemia) was 3.14 µM, the TGI (MOLT-4 leukemia) was 11.8 µM and the GI50 (DU-145 prostate) was 3.01 µM. The TGI (DU-145 prostate) was 9.1 µM, the GI50 (UACC-257 melanoma) was 12.3 µM and the TGI (UACC-257 melanoma) was 25.5 µM. The GI50 (SN12C renal) was 1.72 µM, the TGI (SN12C renal) was 3.51 µM and the GI50 (SF-539 CNS) was 1.81 µM. It also gave a TGI (SF-539 CNS) of 3.24 µM, a GI50 (M14 melanoma) of 1.71 µM and a TGI (M14 melanoma) of 3.78 µM. For the same compound, the GI50 (BT-549 breast) was 11.4 µM, the TGI (BT-549 breast) was 25 µM and the GI50 (T-47D breast) was 13.1 µM. The TGI (T-47D breast) was 29.2 µM, the GI50 (HOP-62 NSCLC) was 5.21 µM and the TGI (HOP-62 NSCLC) was 19.6 µM. The GI50 (MDA-MB-231 breast) was 2.19 µM, the TGI (MDA-MB-231 breast) was 5.94 µM and the GI50 (HCT-116 colon) was 1.43 µM. It also gave a TGI (HCT-116 colon) of 2.79 µM, a GI50 (UO-31 renal) of 4.13 µM and a TGI (UO-31 renal) of 18.3 µM. The GI50 (OVCAR-4 ovarian) was 1.67 µM, the TGI (OVCAR-4 ovarian) was 3.32 µM and the GI50 (SW-620 colon) was 1.64 µM. It also gave a TGI (SW-620 colon) of 3.63 µM, a GI50 (PC-3 prostate) of 1.81 µM and a TGI (PC-3 prostate) of 3.86 µM. It also gave a GI50 (SK-OV-3 ovarian) of 10.1 µM, a TGI (SK-OV-3 ovarian) of 21.7 µM and a GI50 (UACC-62 melanoma) of 16.4 µM. It also gave a TGI (UACC-62 melanoma) of 31.6 µM, a GI50 (CCRF-CEM leukemia) of 3.42 µM and a TGI (CCRF-CEM leukemia) of 12.2 µM. It also gave a GI50 (HT29 colon) of 1.69 µM, a TGI (HT29 colon) of 3.5 µM and a GI50 (SF-268 CNS) of 3.45 µM. The TGI (SF-268 CNS) was 15.3 µM, the GI50 (A549 NSCLC) was 1.67 µM and the TGI (A549 NSCLC) was 3.18 µM. It also gave a GI50 (SK-MEL-5 melanoma) of 16.3 µM, a TGI (SK-MEL-5 melanoma) of 29.8 µM and a GI50 (IGROV1 ovarian) of 3.66 µM. For the same compound, the TGI (IGROV1 ovarian) was 15.9 µM, the GI50 (COLO 205 colon) was 4.58 µM and the TGI (COLO 205 colon) was 20 µM. It also gave a GI50 (HS 578T breast) of 8.82 µM, a TGI (HS 578T breast) of 28.2 µM and a GI50 (MALME-3M melanoma) of 4.76 µM. It also gave a TGI (MALME-3M melanoma) of 20.5 µM, a GI50 (K-562 leukemia) of 2.73 µM and a GI50 (OVCAR-5 ovarian) of 7.03 µM. It also gave a TGI (OVCAR-5 ovarian) of 19.7 µM, a GI50 (EKVX NSCLC) of 4.76 µM and a TGI (EKVX NSCLC) of 17.3 µM. It also gave a GI50 (CAKI-1 renal) of 1.49 µM, a TGI (CAKI-1 renal) of 2.9 µM and a GI50 (OVCAR-3 ovarian) of 2.24 µM. The TGI (OVCAR-3 ovarian) was 4.99 µM, the GI50 (A498 renal) was 15.3 µM and the TGI (A498 renal) was 31.4 µM. It also gave a GI50 (NCI-H226 lung) of 6.32 µM, a TGI (NCI-H226 lung) of 20.9 µM and a GI50 (SF-295 CNS) of 4.72 µM. It also gave a TGI (SF-295 CNS) of 17.1 µM, a GI50 (NCI-H522 lung) of 4.22 µM and a TGI (NCI-H522 lung) of 17 µM. The GI50 (KM12 colon) was 2.65 µM, the TGI (KM12 colon) was 8.35 µM and the GI50 (MDA-MB-435) was 2.18 µM. For the same compound, the TGI (MDA-MB-435) was 5.57 µM, the GI50 (NCI-H460 lung) was 2.1 µM and the TGI (NCI-H460 lung) was 4.8 µM.
